# Data as given in patent US11648289B2, “Antibacterial method” (priority 2016, dated 2023).
# No end group written: not given here.
# Assays:
# [1] = system: L. monocytogenes LMGT 2605
# Experimental: (§1) Bacterial strains, growth conditions, bacteriocins and antimicrobial assays. All the strains (see below) used in minimal inhibitory concentration (MIC) assays (Varahan et al., 2014, M. Bio. 5:e01726-01714) were grown in BHI medium (Oxoid) at 30° C. without shaking. A collection of E. faecium strains isolated from blood in patients from different European hospitals was received from Department of Medical Microbiology, University Medical Center Utrecht, the Netherlands. […] Synthesized peptides were solubilized to concentrations of 10.0-0.1 mg/ml in 0.1% (vol/vol) trifluoroacetic acid and stored at −20° C. until use. […] Bacteriocin activity was determined by microtiter plate assay as previously described (Holo et al., 1991, J. Bacteriol., 173:3879-3887). The MIC was defined as the minimal bacteriocin concentration that inhibited the growth of the indicator strain by at least 50% (50% of the turbidity of the control culture without bacteriocin) in 200 μl culture. CD Spectroscopy Circular dichroism (CD) spectra were recorded using a Jasco J-810 spectropolarimeter (Jasco International Co) calibrated with D-camphor-10-sulfonate (Icatayama Chemical). All measurements were made using a quartz cuvette (Sterna) with 0.1 cm path length. Samples were scanned five times with a scanning rate of 50 nm/min with a bandwidth of 0.5 nm and response time of 1 s over the wavelength range 190-250 nm. Spectra were recorded at different (30 and 50%) trifluoroethanol (TFE) (Aldridge) concentrations at 25° C. The approximate α-helical content of the protein was estimated from its molar ellipticity at 222 nm (Scholtz et al., 1991, Biopolymers 31:1463-1470). NMR Spectroscopy The experiments were run on a sample containing 1.0 mM EntK1, 50% D3-TFE (99.5% D) (Aldrich), Milli-Q water and 0.2 mM of 4,4-dimethyl-4-silapentane-1-sulfonic acid (DSS) (Larodan). 2D NOESY (Jeener et al., 1979, J. Magn. Reson., 71:4546-4553), 2D TOCSY (Braunschweiler and Ernst, 1983, J. Magn. Reson., 53:521-528), 2D DQCOSY, ^15N-HSQC (Davis et al., 1992, J. Magn. Reson., 98:207-216) and ^13C-HSQC (Hurd, 1991, J. Magn. Reson., 91:648-653) were recorded. The data was acquired on a 600 MHz Bruker Avance II spectrometer with four channels and a 5 mm TCI cryoprobe (Bruker Biospin). NOESY spectra with mixing times between 120 ms and 300 ms were obtained for both samples. TOCSY mixing times of 15-80 ms were used. The experiments were run at 298.15 K. Spectra were processed using the Topspin program (Bruker Biospin). 4,4-dimethyl-4-silapentane-1-sulfonic acid (DSS) was used as a chemical shift standard, and ^15N and ^13C data were referenced using frequency ratios as described in (Wishart et al., 1995, J. Biomol. NMR., 6:135-140). For visualization, assignment and integration of the spectra the computer program CARA was used (Keller, 2004, The Computer Aided Resonance Assignment Tutorial. CANTINA Verlag, Goldau, Switzerland). The spectra were assigned using standard methods. Dihedral angle restraints were obtained from the chemical shift values using the program TALOS-N(Shen and Bax, 2013, J. Biomol. NMR, 56:227-241). Nuclear Overhauser effect (NOE) distance restraints were calculated from the peak volumes in the NOESY spectra with NOESY mixing time of 200 ms. All structure calculations were made using the structure calculation program CYANA 2.1 (Guntert et al., 1997, J. Mol. Biol., 273:283-298; Herrmann et al., 2002, J. Mol. Biol., 319:209-227). The annealing macro in CYANA calculated 100 structures. The 20 structures with the lowest energy were kept and analyzed further. The root-mean-square deviation (RMSD) was calculated and the structures were visualized using MolMol (Koradi et al., 1996, J. Mol. Graph., 14:51-55, 29-32). Generation of bacteriocin resistant mutants of E. faecalis and E. faecium.
# B. cercus LMGT 2711 = system: B. cercus LMGT 2711
# Experimental: as §1
# [2] = system: S. pneumoniae ds220 induced; details: ds220 induced with ComS (2 μM), WT rseP
# Experimental: as §1
# S. aureus LMGT 3258 = system: S. aureus LMGT 3258
# Experimental: as §1
# E. faecium LMGT 3193 = system: E. faecium LMGT 3193
# Experimental: as §1
# E. faecalis LMGT 3358 = system: E. faecalis LMGT 3358
# Experimental: as §1
# L. lactis IL1403 = system: L. lactis IL1403
# Experimental: as §1
# S. pneumoniae ms1 = details: ms1, rseP H18>A, induced with ComS (2 μM)
# Experimental: as §1
# E. faecalis LMGT 3200 = system: E. faecalis LMGT 3200
# Experimental: as §1
# E. faecium LMGT 3192 = system: E. faecium LMGT 3192
# Experimental: as §1
# S. aureus LMGT 3289 = system: S. aureus LMGT 3289
# Experimental: as §1
# S. pneumoniae ms4 = details: ms4, rseP Y24>A, induced with ComS (2 μM)
# Experimental: as §1
# E. faecium LMGT 3599 = system: E. faecium LMGT 3599
# Experimental: as §1
# E. faecium LMGT 2769 = system: E. faecium LMGT 2769
# Experimental: as §1
# S. pneumoniae ms5 = details: for MIC: ms5, rseP HExxH>AAxxA, induced with ComS (2 μM)
# Experimental: as §1
# S. pneumoniae ds 221 = details: ds 221, no rseP
# Experimental: as §1
# E. faecalis LMGT 3571 = system: E. faecalis LMGT 3571
# Experimental: as §1
# [3] = system: Enterococcus. faecalis LMGT 3199
# Experimental: as §1
# S. aureus LMGT 3272 = system: S. aureus LMGT 3272
# Experimental: as §1
# [4] = system: Bacillus cereus LMGT 2805
# Experimental: as §1
# E. faecalis LMGT 3370 = system: E. faecalis LMGT 3370
# Experimental: as §1
Sequence,MIC 50 [1] [µM],MIC 50 (B. cercus LMGT 2711) [µM],MIC [2] [µM],MIC 50 (S. aureus LMGT 3258) [µM],MIC 50 (E. faecium LMGT 3193) [µM],MIC 50 (E. faecalis LMGT 3358) [µM],MIC 50 (L. lactis IL1403) [µM],MIC (S. pneumoniae ms1) [µM],MIC 50 (E. faecalis LMGT 3200) [µM],MIC 50 (E. faecium LMGT 3192) [µM],MIC 50 (S. aureus LMGT 3289) [µM],MIC (S. pneumoniae ms4) [µM],MIC 50 (E. faecium LMGT 3599) [µM],MIC 50 (E. faecium LMGT 2769) [µM],MIC (S. pneumoniae ms5) [µM],MIC (S. pneumoniae ds 221) [µM],MIC 50 (E. faecalis LMGT 3571) [µM],MIC 50 [3] [µM],MIC 50 (S. aureus LMGT 3272) [µM],MIC 50 [4] [µM],also measured
MKFKFNPTGTIVKKLTQYEIAWFKNKHGYYPWEIPRC [EntK1],>5.5,2.75,0.7,>5.5,0.085,2.7,0.17,>5.5,>5.5,0.02,>5.5,0.7,0.085,0.045,>5.5,>5.5,>5.5,5.5,>5.5,>5.5,MIC 50 (E. faecalis LMGT 3370): 5.5 µM
MLAKIKAMIKKFPNPYTLAAKLTTYEINWYKQQYGRYPWERPVA [EntEJ97],1.175,>4.7,0.018,>4.7,0.145,0.075,0.037,0.3,0.295,0.295,>4.7,0.018,0.145,0.145,0.6,>4.5,0.295,0.145,1.175,>4.7,times more resistant than the WT (S. pneumoniae ms5; all three conserved RseP residues replaced with alanines): 30 times; MIC 50 (E. faecalis LMGT 3370): 0.145 µM
"MKTILRFVAGYDIASHKKKTGGYPWERGKA [LsbB, reference compound]",>7,>7,>7,>7,>7,>7,0.0005,>7,>7,>7,>7,>7,>7,>7,>7,>7,>7,>7,>7,>7,times more potent than EntEJ97 (L. lactis IL1403): ~70 times; times more potent than EntK1 (L. lactis IL1403): about 340 times; MIC 50 (E. faecalis LMGT 3370): >7 µM
